Measured values reported in patent US20260138969A1 (Korea Research Institute of Chemical Technology, priority 2023, published 2026).

Key:
[1] = system: SH-SY5Y cells; test: Cytoprotective effects in MPP+-induced human neurons (CCK-8); type: cell-based; settings: MPP+ 5 mM induced cytotoxicity, cell viability by CCK-8
Protocol: SH-SY5Y cells were purchased from ATCC and cultured at 37° C. and 5% CO2 in RPMI medium containing 10% FBS and 1% penicillin and streptomycin. MPP+ was purchased from Sigma Aldrich and treated with 5 mM to induce cytotoxicity.

[2] = system: PC12 cells; test: Neuronal protective efficacy against 6-OHDA (MTT); type: cell-based; settings: Rattus norvegicus, PC-12, 6-OHDA 40 μM, Control = 100, read-out: cell viability (AVE)
Protocol: (§1) The neuronal toxicity substances 6-OHDA (6-hydroxydopamine hydrobromide) and MPP+ (1-methyl-4-phenylpyridinium) were purchased from Sigma-Aldrich (Saint Louis, MO, USA) and made into 100 mM DMSO stock. PC12 cells were seeded on 96-well plates with 4 pieces of 1×10 per well and incubated for one day. The cells were pretreated with each concentration of embodied compound for 1 h. Subsequently, 40 μM 6-OHDA and 2 mM MPP^+ were added and incubated for 24 hours, respectively. Subsequently, cell viability was measured using MTT (Invitrogen, MA, USA).

[3] = system: PC12 cells; test: Neuronal protective efficacy against MPP+ (MTT); type: cell-based; settings: Rattus norvegicus, PC-12, MPP 2 mM, Control = 100, read-out: cell viability (AVE)
Protocol: as §1

[4] = Distribution in the mouse brain (plasma and brain AUC); type: in vivo
Protocol: The blood-brain barrier permeability in ICR mice was confirmed by oral administration of 10 mg/kg of test material. Male […] mice were fasted for 15 h prior to administration. The test material was administered at a dose of 10 mg/kg and a volume of 5 mL/kg, and the solvent composition was N-Methyl-2-pyrrolidone (NMP), Polyethylene glycol 400 (PEG 400), and distilled water (D.W) at a volume ratio of 10:40:50(%), respectively. After administration, blood and brain tissue samples were taken by sacrificing mice with carbon dioxide inhalation at each time point corresponding to 1, 4, and 8 hours. Whole blood was collected from the abdominal vena cava, and brain samples were collected after systemic perfusion with saline to remove as much blood as possible.
The distribution ratio in mouse plasma and brain was calculated by calculating the AUC after concentration quantification in each tissue.

[5] = system: CDAHFD-induced non-alcoholic steatohepatitis mouse model; test: CDAHFD-induced non-alcoholic steatohepatitis mouse model: liver fibrosis (Picrosirius red); type: in vivo; settings: Selonsertib 30 mg/kg, Example 3 10 and 30 mg/kg, Example 2 10 and 30 mg/kg PO QD; CDAHFD diet 4 and 8 weeks
Protocol: Creation of CDAHFD-induced NASH model and drug administration were carried out by dividing C57BL/6 male mice at 3 weeks of age into 7 groups as shown in Table 16 below. The control group (G1) was fed standard feed and water. Groups G2 to G7 were fed the CDAHFD (Research Diet Inc, #A06071302) diet for 4 and 8 weeks.
Picrosirius red staining was used for histological visualization of collagen fibers. Histopathology analysis evaluated the efficacy of improving liver fibrosis.
For mice in each group, three sections of the liver fixed with 4% PFA (paraformaldehyde) were prepared with paraffin blocks. Paraffin blocks were sectioned to a thickness of 5 μm (Histocore AUTOCUT R, Leica Microsystems, Germany) and the sections were mounted on silane-coated slides (MUTO, JPN) and stored until staining.
Xylene was used to remove paraffin from the slides, and the slides were moisturized and washed. The slides were stained with a solution of Picrosirius red (ab150681, Abcam, UK) and washed off with a solution of acetic acid. The slides were fitted after dehydration and cleaning using alcohol and xylene. For each section, two images of different areas were taken using a microscope (Axioscan7, ZEISS, Germany). The fibrotic area was measured using image J software compared to the total area. FIGS. 23a and 23b are graphs and images of Picrosirius red stained area ratios in the liver of a CDAHFD-induced mouse model of nonalcoholic steatohepatitis.

[6] = system: Reserpine-induced fibromyalgia rat model; test: Reserpine-induced fibromyalgia rat model: pain (von Frey test); type: in vivo; settings: gabapentin 50 mg/kg IP QD; Example 2 3, 10, 30 mg/kg PO QD; days 1, 2, 4, 6
Protocol: Reserpine-induced fibromyalgia model generation and drug administration were carried out on 6-week-old male SD rats divided into 6 groups as shown in Table 15 below: control group (G1), reserpine+delivery (G2), reserpine+gabapentin 50 mg/kg (G3), reserpine+Example 2 3 mg/kg (G4), 10 mg/kg (G5), and 30 mg/kg (G6). To create a rat fibromyalgia model, reserpine (Sigma-aldrich, 1 mg/kg) dissolved in 0.5% acetic acid was administered subcutaneously once for 3 days from 3 days before the start of the experiment. Beginning on Day 1, the once-daily (QD) delivery body, gabapentin, and embodiment 2 were administered intraperitoneally (IP) or orally (PO) 2 hours before the experiment was performed.
The right hind foot tactile response test (von Frey test) was performed 5 times (before the fibromyalgia model, and on the 1st, 2nd, 4th and 6th days after the model was generated). Before all behavioral tests, rats were accustomed to the environment for 30 minutes, and all experimenters performing behavioral tests were made blind to drug administration information. Before model generation, baseline measurements were performed by performing the von Frey test on all rats. The rat was placed on a wired mesh and placed in a transparent plastic box (20×20×14 cm), and the foot withdrawal threshold was measured by applying a von Frey filament (ascending weight: 0.4, 0.6, 1.4, 2, 4, 6, 8, and 15 g, North Coast) to the middle of the right hind foot to assess foot allodynia.

[7] = system: MPTP-induced PD mouse model; test: MPTP-induced PD mouse model: TH staining of striatum and substantia nigra; type: in vivo; settings: PO QD Day 1-7; Nilotinib 40 mg/kg, Example 3 2/10/50 mg/kg, Example 2 50 mg/kg; vs MPTP group G2
Protocol: Mice at 7 weeks of age were divided into 7 groups as shown in Table 9 below to generate an acute MPTP model and proceed with drug administration: control group+vehicle (G1), MPTP+vehicle (G2), MPTP+Nilotinib 40 mg/kg (G3), MPTP+Example 3 2 mg/kg (G4), MPTP+Example 3 10 mg/kg (G5), MPTP+Example 3 50 mg/kg (G6), and MPTP+Example 2 50 mg/kg (G7). The test drug was administered orally (PO) at 10 ml/kg once daily (QD) from Day 1 to Day 7. The acute MPTP model will be performed at 2-hour intervals in all groups except the control group. […] was administered as intraperitoneal (IP) injection for 4 doses. The control group was given the same amount of 0.9% saline. The Pole test was performed on day 4 (after training on day 2 and day 3). On day 7, all mice were euthanized, and their brains were harvested.
Mice were euthanized with Zoletil administration for collection of tissue samples for staining and analysis of histological sections. Blood was collected from the heart of the mouse and then the residual blood was perfused with phosphate-buffered saline (PBS). For half of the mice (n=6/group), the brain was incised into the striatum, substantia nigra, and the rest of the brain, flash-frozen, and stored at −80° C. The remaining mice (n=6/group) had their brains isolated and immobilized in 4% paraformaldehyde for 24 hours at 4° C., followed by 30% sucrose in phosphate-buffered saline (PBS) containing 0.02% sodium azide and stored at 4° C. for 3 days. Immunohistochemical sections were performed on brain samples embedded with optimal cutting temperature (OCT) compounds. Samples were sectioned to a thickness of 20 μm using Leica CM1950 (Leica Microsystems, Germany) and stored at 4° C. in a preservation solution until staining with antibodies.
After staining the striatum and substantia nigra of the brain and mounting them on microscopic slides, the slides were washed with PBS containing 0.3% Triton X-100 and peroxidase block for 15 min at room temperature. The slides were washed three times with PBS containing 0.3% Triton X-100 and then blocked at RT (room temperature) for 1 hour in a solution containing PBS, 5% normal goat serum, and 0.3% Triton X-100. Tyrosine hydroxylase antibody was diluted at 1:1000 and incubated overnight at 4° C. The slides were washed with PBS solution and incubated for 1 h at RT with secondary antibody. The slides were washed with PBS solution and the sections were placed in the solution to proceed with the DAB (diaminobenzidine) reaction.
The DAB response was monitored under a microscope for 2 to 3 minutes, and the slides were washed with PBS to stop the DAB response, dehydrated, and mounted using xylene. An Olympus microscope (Olympus, SZ61, BX51) was used to visualize TH stained images. The optical density (OD) value of positive TH staining was measured in the striatum and substantia nigra and analyzed using Image J software.

[8] = molecular target: T1, recombinant human ASK1 protein (Homo sapiens, UniProt Q99683); test: Evaluation of ASK1 inhibition activity ([gamma-33P]-ATP, scintillation counting); type: biochemical; settings: 0.5 uM; activity of group without compound set at 100%; read-out: Remaining kinase activity (%) at 0.5 uM
T1 sequence (Q99683 1-1374): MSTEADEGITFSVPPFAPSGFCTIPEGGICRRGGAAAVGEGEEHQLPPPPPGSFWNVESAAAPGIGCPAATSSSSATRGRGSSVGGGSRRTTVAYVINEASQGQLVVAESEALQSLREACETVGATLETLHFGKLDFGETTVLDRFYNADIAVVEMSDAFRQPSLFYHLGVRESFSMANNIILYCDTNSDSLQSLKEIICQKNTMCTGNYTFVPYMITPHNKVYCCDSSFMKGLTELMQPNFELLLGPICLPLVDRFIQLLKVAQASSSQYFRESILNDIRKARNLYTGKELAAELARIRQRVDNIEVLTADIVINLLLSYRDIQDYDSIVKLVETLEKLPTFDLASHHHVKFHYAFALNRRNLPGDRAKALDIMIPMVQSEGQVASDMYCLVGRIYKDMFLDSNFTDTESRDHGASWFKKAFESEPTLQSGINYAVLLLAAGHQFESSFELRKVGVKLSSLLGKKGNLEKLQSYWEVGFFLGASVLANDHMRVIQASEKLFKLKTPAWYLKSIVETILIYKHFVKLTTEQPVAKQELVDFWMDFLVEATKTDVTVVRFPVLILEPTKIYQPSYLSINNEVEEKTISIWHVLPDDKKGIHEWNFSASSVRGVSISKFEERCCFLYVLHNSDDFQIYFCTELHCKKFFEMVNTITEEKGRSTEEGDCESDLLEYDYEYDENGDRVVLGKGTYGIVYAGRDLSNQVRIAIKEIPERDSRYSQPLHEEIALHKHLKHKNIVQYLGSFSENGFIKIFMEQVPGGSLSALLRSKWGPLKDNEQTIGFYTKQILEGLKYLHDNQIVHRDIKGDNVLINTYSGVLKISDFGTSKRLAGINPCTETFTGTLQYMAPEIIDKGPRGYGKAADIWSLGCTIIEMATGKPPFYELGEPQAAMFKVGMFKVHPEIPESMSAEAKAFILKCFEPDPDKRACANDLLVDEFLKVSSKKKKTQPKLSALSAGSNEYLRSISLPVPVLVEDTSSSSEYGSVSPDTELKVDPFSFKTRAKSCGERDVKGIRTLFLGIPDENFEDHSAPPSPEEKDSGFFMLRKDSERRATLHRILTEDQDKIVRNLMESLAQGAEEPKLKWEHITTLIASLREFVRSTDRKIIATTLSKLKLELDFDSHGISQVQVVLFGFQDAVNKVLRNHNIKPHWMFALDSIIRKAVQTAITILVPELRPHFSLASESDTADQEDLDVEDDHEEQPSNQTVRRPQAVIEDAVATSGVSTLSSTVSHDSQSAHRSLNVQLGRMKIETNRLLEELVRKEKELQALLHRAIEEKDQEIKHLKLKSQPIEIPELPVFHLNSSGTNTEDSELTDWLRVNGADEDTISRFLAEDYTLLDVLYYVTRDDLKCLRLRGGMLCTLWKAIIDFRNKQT
Protocol: The recombinant human ASK1 protein was initiated by adding a mixture of Mg/ATP to the reaction solution (8 mM MOPS PH 7.0, 0.2 mM EDTA, 0.33 mg/mL myelin basic protein, 10 mM Mg Acetate and [gamma-33P]-ATP), and the reaction was terminated by adding 0.5% phosphoric acid after 40 min at room temperature.

[9] = oral 10 mg/kg, samples at 1, 4, 8 hours

## Cc1cc(F)c(C(=O)Nc2cccc(-c3nncn3C(C)C)n2)cc1-n1cnc(C2CC2)c1 [Comparative Example 1, Selonsertib, reference compound]
[1]
  EC50: 89 nM
[2]; compound 0.1 μM
  viability at 0.1 µM: 87.9%
[2]; compound 0.3 μM
  viability at 0.3 µM: 89.2%
[2]; compound 1 μM
  viability at 1 µM: 84.1%
[3]; compound 0.1 μM
  viability at 0.1 µM: 83.6%
[3]; compound 0.3 μM
  viability at 0.3 µM: 81.3%
[3]; compound 1 μM
  viability at 1 µM: 81.3%
[4]; male, brain/plasma, po, 10 mg/kg
  Kp: 0.004
[4]; [9]
  Aukinf brain: 0.26 ± 0.03 ug*h · g.
  Aukinf plasma: 69.9 ± 3.48 µg·mL·h
[5]
  Picrosirius red staining area in the liver: significantly reduced

## NCC1(CC(=O)O)CCCCC1 [Gabapentin, reference compound]
[6]
  sensitivity (foot withdrawal threshold, von Frey test): gradually improved over time

## Cc1cn(-c2cc(NC(=O)c3ccc(C)c(Nc4nccc(-c5cccnc5)n4)c3)cc(C(F)(F)F)c2)cn1 [Nilotinib, reference compound]
[7]
  TH levels in striatum: significantly higher than those in G2

## O=C(Nc1cccc(-n2nnc3c2CCC3)n1)c1cc(-n2cnc(C3CC3)c2)ccc1OC(F)F [Example 26, 5-(4-cyclopropyl-1H-imidazol-1-yl)-2-(difluoromethoxy)-N-(6-(5,6-dihydrocyclopenta[d][1,2,3]triazol-1 (4H)-yl)pyridin-2-yl)benzamide]
[8]
  remaining activity at 0.5 µM: 1%
